Each block holds one sequence with its values, some of them ahead of it. Ends that are not written are not given here.
Assays:
[1] = system: bEnd-3 cells co-cultured with glial C6 cells
Experimental: (§1) These cells are plated at various densities ranging from 10.000 to 50.000 cells per well in two-compartment cell chambers (Greiner Bio-one). The lower compartment of the chamber is a well that is part of 12-well culture plate. The upper chamber is equipped with a permeable filter (mean pore diameter of 0.4 μm) onto which the cells are seeded. The cells are cultured in DMEM/F12 10% fetal calf serum.
(§2) At confluency, the cells formed a uniform monolayer with a transendothelial resistance of 150-200 Ω·cm^2 (measured with the EVOM apparatus, WPI). The transendothelial resistance reflects the presence of tight junctions overall the culture. These tight junctions efficiently prevent the paracellular passage of molecules. It is considered that the endothelium is tight when this value is >100 Ω·cm^2. Therefore, all experiments are performed with functional endothelial barriers. […]
(§3) The passage of the peptide through the endothelial barrier is thus followed in real-time. The concentration of the chimeric peptide is determined by spectrophotometry. […]

[2] = system: bEnd-3 cells co-cultured with astrocytic CTX-TNA2 cells
Experimental: as §1, §2, §3

[3] = system: SH-SY5Y cells; test: Calcium measurements, amyloid pore formation induced by Aβ1-42; format: cell-based, human
Experimental: A. In a first experiment, SH-SY5Y cells were treated with Aβ1-42peptide (220 nM), and Ca^2+ dependent fluorescence was analyzed (top curve). In a second series of experiments, Aβ1-42 and the chimeric α-syn34-45/HH peptide (both 220 nM) were mixed extemporaneously directly injected onto the cells (C1 and C2 curves corresponding to two separate experiments). The C3 curve corresponds to the calcium response induced by the chimeric peptide alone. Results are expressed as mean±SD (n=100). In panel B, the same colors were used but the chimeric peptide was replaced by the wild-type α-syn34-45 peptide.
A. SH-SY5Y cells were treated with Aβ1-42 peptide (220 nM), and Ca^2+ dependent fluorescence was analyze. […] In absence of the chimeric peptide (− Pep Chim), amyloid pore formation induced by the Aβ1-42 peptide was evidenced by an increase of Ca^2+ fluorescence inside the cells. […] Warmer colors correspond to higher fluorescence (left scale).
Cells were plated in 35 mm culture dishes, grown during 72 h and loaded with 5 μM Fluo-4 AM (Invitrogen-Life Technologies, Saint Aubin, France) for 30 min in the dark, washed three times with HBSS (Gibco-Life Technologies, Saint-Aubin, France), and incubated for 20 min at 37° C. […] Fluorescence emission at 525 nm was imaged by a digital camera CDD (ORCA-ER Hamanatsu, Japan) after fluorescence excitation at 490 nm. […]

[4] = Lipid monolayer assay, GD3 monolayer; format: binding; conditions: peptide 10 μM in aqueous subphase
[5] = Lipid monolayer assay, GM4 monolayer; format: binding; conditions: peptide 10 μM in aqueous subphase
[6] = Lipid monolayer assay, GD1a monolayer; format: binding; conditions: peptide 10 μM in aqueous subphase
[7] = Lipid monolayer assay, GM3 monolayer; format: binding
[8] = Lipid monolayer assay, GT1b monolayer; format: binding; conditions: peptide 10 μM in aqueous subphase
[9] = Lipid monolayer assay (Langmuir film balance), GM1 monolayer; format: binding; conditions: for interaction with GM1 monolayer (surface pressure increase): peptide 10 μM in subphase
Experimental: Peptide-cholesterol interactions were studied with the Langmuir film balance technique using a Kibron microtensiometer as previously described (Fantini and Yahi, 2011a).
In this experiment, a monolayer of ganglioside GM1 was prepared at the air-water interface and the peptide was injected in the aqueous subphase. The interaction of the peptide with the ganglioside was evidenced by an increase in the surface pressure of the monolayer, which was followed in real-time with a platinum probe (see Thakur et al, 2009 for a full description of the technique and its application to amyloid proteins). […] Then single mutants were assayed to identify which of the two His is actually critical for GM1 recognition. […] In this model, His-13 interacted with one GM1, and His-14 with the second one. Clearly, the cooperation between both GM1 molecules allowed an optimal interaction with the Aβ5-16 peptide driven by histidine residues. Conversely, because it is devoid of these histidine residues, the glycolipid-binding domain of α-synuclein (α-syn34-45) has a marked preference for ganglioside GM3 instead of GM1.

[10] = ganglioside monolayer, peptide 10 μM in aqueous subphase
[11] = initial surface pressure 17.5 mN·m^−1

transendothelial resistance after 24 hours of incubation with peptide [1]: 152 Ω·cm^2
transendothelial resistance after 24 hours of incubation with peptide [2]: 153 Ω·cm^2
Sequence: KEGVLYVGHHTK [α-syn34-45/HH, KEGVLYVGHHTK]
effect of peptide alone on Ca^2+ fluxes (intrinsic neurotoxicity) ([3]; peptide alone, SH-SY5Y cells): little effect on Ca^2+ fluxes

Sequence: KEGVLYVGSKTK (listed as Homo sapiens) [α-syn34-45]
Ganglioside specificity: critical pressure of insertion, GD3 [4]: + ((+) means a critical pressure of insertion <25 mN · m^−1)
Ganglioside specificity: critical pressure of insertion, GM4 [5]: + ((+) means a critical pressure of insertion <25 mN · m^−1)
Ganglioside specificity: critical pressure of insertion, GD1a [6]: + ((+) means a critical pressure of insertion <25 mN · m^−1)
Ganglioside specificity: critical pressure of insertion, GM3 [7, 10]: +++ ((+++) a critical pressure of insertion >25 mN · m^−1)
critical pressure of insertion (πc), GM3 monolayers ([7]; monolayers at various initial surface pressures, x-axis intercept (FIG. 2B)): 37.5 mN·m^−1
Ganglioside specificity: critical pressure of insertion, GT1b [8]: + ((+) means a critical pressure of insertion <25 mN · m^−1)
effect on elevation of intracellular Ca^2+ levels induced by Aβ1-42 ([3]; Aβ1-42 220 nM, peptide 220 nM (equimolar), Fluo-4 AM fluorescence): only very little inhibitory activity
Ganglioside specificity: critical pressure of insertion, GM1 [9, 10]: + ((+) means a critical pressure of insertion <25 mN · m^−1)
critical pressure of insertion (πc), GM1 monolayers ([9]; monolayers at various initial surface pressures, x-axis intercept (FIG. 2D, 4C)): 25 mN·m^−1

Sequence: KEHHGVLYVGTK [reversed chimeric peptide]
interaction with GM3 monolayer (surface pressure increase, kinetics) ([7]; peptide in subphase, initial surface pressure 17.5 mN·m^−1): recognizes both GM1 and GM3 gangliosides
interaction with GM1 monolayer (surface pressure increase) [9, 11]: recognizes both GM1 and GM3 gangliosides

Sequence: RHDSGYEVHHQK (listed as Homo sapiens) [Aβ5-16]
interaction with GM1 monolayer (surface pressure increase) [9, 11]: surface pressure started to increase immediately after the injection
time to maximum surface pressure, GM1 monolayer ([9]; peptide 10 μM, initial surface pressure 17.5 mN·m^−1): 30 min

Reference: patent US10087226B2, “Chimeric peptide that interacts with cell membrane gangliosides” (Universite D'Aix-Marseille, priority 2014, dated 2018)
